According to US20080274892A1, “Novel Haloalkylsulfonanilide Derivative, Herbicide, and Method of Use Thereof” (priority 2005, published 2008):

Key:
false pimpernel [1] = test: Test Example 1: herbicidal efficacy on rice paddy weeds pre-emergence; type: in vivo, Lindernia pyxidaria; conditions: dosage 1000 g/ha, 21 days
[2] = system: paddy rice plant (cultivar: Nihonbare); test: Test Example 3: phytotoxicity test for transplanted paddy rice plant; type: in vivo; conditions: dosage 1000 g/ha; transplanted rice, treated 5 days after transplantation; 21 days after treatment
Outline: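 Clay loam soil was placed in a 75 cm^2 plastic pot and flooded to a water depth of 5 cm. Two Nihonbare paddy rice plants at the two-leaf stage were transplanted 1 cm deep and grown in a hot house. After treatment, pots stayed in the hot house for 21 days, and phytotoxicity was then graded against an untreated control.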

bulrush [3] = test: Test Example 4: low dosage test for rice paddy weeds; type: in vivo, Scirpus juncoides; conditions: 300 g/ha as an active ingredient; plants treated at the one leaf stage; 21 days after treatment; vs untreated control
Outline: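 Compound applied as a formulation at 300 g/ha to one-leaf bulrush grown in flooded clay loam (5 cm water) in a hot house. After 21 days, growth inhibition versus untreated plants rated on a 0–4 scale, with 4 meaning 90–100%.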

bulrush [4] = test: Test Example 1: herbicidal efficacy on rice paddy weeds pre-emergence; type: in vivo, Scirpus juncoides; conditions: dosage 1000 g/ha, 21 days
bulrush [5] = test: Test Example 2: herbicidal efficacy on rice paddy weeds post-emergence; type: in vivo, Scirpus juncoides; conditions: dosage 1000 g/ha; post-emergence, one leaf stage; 21 days after treatment
[6] = system: transplanted paddy rice plant and Bulrush; test: Test Example 5: selectivity between transplanted paddy rice plant and weeds; type: in vivo; conditions: (highest dosage with no phytotoxicity to paddy rice)/(lowest dosage with effective level 4 on Bulrush); rice 3000-100 g/ha, Bulrush 300-10 g/ha; 21 days
Outline: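 Scoring ran 21 days after treatment in a hothouse on a 0–4 scale (4 = 90–100%, 3 = 70–89%, 2 = 40–69%, 1 = 1–39%, 0 = none) relative to untreated plants. Post-emergence bulrush received 10, 30, 100 and 300 g/ha active ingredient. Transplanted rice received 100, 300, 1000 and 3000 g/ha to assess crop injury.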

barnyard glass = test: Test Example 2: herbicidal efficacy on rice paddy weeds post-emergence; type: in vivo, Echinochloa crus-galli; conditions: dosage 1000 g/ha; post-emergence, one leaf stage; 21 days after treatment
Outline: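 Efficacy on paddy weeds was scored on a 0 to 4 growth-inhibition scale: 4 for 90%-100%, 3 for 70%-89%, 2 for 40%-69%, 1 for 1%-39% and 0 for 0%. Barnyard glass was grown in clay loam in 75 cm^2 pots under 5 cm of water in a hot house. It was compared with untreated pots 21 days after treatment.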

false pimpernel [7] = test: as above; type: in vivo, Lindernia pyxidaria; conditions: dosage 1000 g/ha; post-emergence, one leaf stage; 21 days after treatment

Row | SMILES | False pimpernel pre (herbicidal efficacy grade) (false pimpernel [1]) | Phytotoxicity to paddy rice [2] | Herbicide effect to Bulrush (bulrush [3]) | Bulrush pre (herbicidal efficacy grade) (bulrush [4]) | Bulrush post (herbicidal efficacy grade) (bulrush [5]) | Selective Index [6] | Burnyard grass post (herbicidal efficacy grade) (barnyard glass) | False pimpernel post (herbicidal efficacy grade) (false pimpernel [7])
1 | CC(C)COC(=O)N(c1ccccc1CN1CC2(CC2)OC1=O)S(=O)(=O)C(F)(F)F [1-89] | 4 (90%-100% of herbicidal efficacy or phytotoxicity) | 1 (1%-39% of herbicidal efficacy or phytotoxicity) | 4 (90%-100% of herbicidal efficacy or phytotoxicity) | 4 (90%-100% of herbicidal efficacy or phytotoxicity) | 4 (90%-100% of herbicidal efficacy or phytotoxicity) | 10 | 4 (90%-100% of herbicidal efficacy or phytotoxicity) | 4 (90%-100% of herbicidal efficacy or phytotoxicity)
2 | COC(=O)N(c1ccccc1CN1C(=O)OC2CCCCC21)S(=O)(=O)C(F)(F)F (stereo not drawn) [1-152] | 4 (90%-100% of herbicidal efficacy or phytotoxicity) | 1 (1%-39% of herbicidal efficacy or phytotoxicity) | 4 (90%-100% of herbicidal efficacy or phytotoxicity) | 4 (90%-100% of herbicidal efficacy or phytotoxicity) | 4 (90%-100% of herbicidal efficacy or phytotoxicity) | 10 | 4 (90%-100% of herbicidal efficacy or phytotoxicity) | 4 (90%-100% of herbicidal efficacy or phytotoxicity)
3 | COC(=O)N(c1ccccc1CN1CC(C)(C)SC1=O)S(=O)(=O)C(F)(F)F [1-186] | 4 (90%-100% of herbicidal efficacy or phytotoxicity) | 1 (1%-39% of herbicidal efficacy or phytotoxicity) | 4 (90%-100% of herbicidal efficacy or phytotoxicity) | 4 (90%-100% of herbicidal efficacy or phytotoxicity) | 4 (90%-100% of herbicidal efficacy or phytotoxicity) | 10 | 4 (90%-100% of herbicidal efficacy or phytotoxicity) | 4 (90%-100% of herbicidal efficacy or phytotoxicity)
4 | CCC1(CC)CN(Cc2ccccc2N(C(=O)OCCOC)S(=O)(=O)C(F)(F)F)C(=O)O1 [1-134] | 4 (90%-100% of herbicidal efficacy or phytotoxicity) | 1 (1%-39% of herbicidal efficacy or phytotoxicity) | 4 (90%-100% of herbicidal efficacy or phytotoxicity) | 4 (90%-100% of herbicidal efficacy or phytotoxicity) | 4 (90%-100% of herbicidal efficacy or phytotoxicity) | 10 | 4 (90%-100% of herbicidal efficacy or phytotoxicity) | 4 (90%-100% of herbicidal efficacy or phytotoxicity)
5 | CC(C)COC(=O)N(c1ccccc1CN1CC(C)(C(F)(F)F)OC1=O)S(=O)(=O)C(F)(F)F (stereo not drawn) [1-136] | 4 (90%-100% of herbicidal efficacy or phytotoxicity) | 1 (1%-39% of herbicidal efficacy or phytotoxicity) | 4 (90%-100% of herbicidal efficacy or phytotoxicity) | 4 (90%-100% of herbicidal efficacy or phytotoxicity) | 4 (90%-100% of herbicidal efficacy or phytotoxicity) | 10 | 4 (90%-100% of herbicidal efficacy or phytotoxicity) | 4 (90%-100% of herbicidal efficacy or phytotoxicity)
6 | CC(C)COC(=O)N(c1ccccc1CN1CC(C(C)C)OC1=O)S(=O)(=O)C(F)(F)F (stereo not drawn) [1-32] | 4 (90%-100% of herbicidal efficacy or phytotoxicity) | 0 (0% of herbicidal efficacy or phytotoxicity) | 3 (70%-89% of herbicidal efficacy or phytotoxicity) | 4 (90%-100% of herbicidal efficacy or phytotoxicity) | 4 (90%-100% of herbicidal efficacy or phytotoxicity) | 10 | 4 (90%-100% of herbicidal efficacy or phytotoxicity) | 4 (90%-100% of herbicidal efficacy or phytotoxicity)
7 | CC(C)COC(=O)N(c1ccccc1CN1CC(C2CC2)(C2CC2)OC1=O)S(=O)(=O)C(F)(F)F [1-171] | 4 (90%-100% of herbicidal efficacy or phytotoxicity) | 1 (1%-39% of herbicidal efficacy or phytotoxicity) | 4 (90%-100% of herbicidal efficacy or phytotoxicity) | 4 (90%-100% of herbicidal efficacy or phytotoxicity) | 4 (90%-100% of herbicidal efficacy or phytotoxicity) | 10 | 4 (90%-100% of herbicidal efficacy or phytotoxicity) | 4 (90%-100% of herbicidal efficacy or phytotoxicity)
8 | CCC1(CC)CN(Cc2ccccc2NS(=O)(=O)C(F)(F)F)C(=S)O1 [1-178] | 4 (90%-100% of herbicidal efficacy or phytotoxicity) | 1 (1%-39% of herbicidal efficacy or phytotoxicity) | 4 (90%-100% of herbicidal efficacy or phytotoxicity) | 4 (90%-100% of herbicidal efficacy or phytotoxicity) | 4 (90%-100% of herbicidal efficacy or phytotoxicity) | 10 | 4 (90%-100% of herbicidal efficacy or phytotoxicity) | 4 (90%-100% of herbicidal efficacy or phytotoxicity)
9 | CC(C)(C)COC(=O)N(c1ccccc1CN1CC(C)(C)OC1=O)S(=O)(=O)C(F)(F)F [1-66] | 4 (90%-100% of herbicidal efficacy or phytotoxicity) | 1 (1%-39% of herbicidal efficacy or phytotoxicity) | 4 (90%-100% of herbicidal efficacy or phytotoxicity) | 4 (90%-100% of herbicidal efficacy or phytotoxicity) | 4 (90%-100% of herbicidal efficacy or phytotoxicity) | ≧30 | 4 (90%-100% of herbicidal efficacy or phytotoxicity) | 4 (90%-100% of herbicidal efficacy or phytotoxicity)
10 | CCCC1(CC)CN(Cc2ccccc2N(C(=O)OCC(C)C)S(=O)(=O)C(F)(F)F)C(=O)O1 (stereo not drawn) [1-132] | 4 (90%-100% of herbicidal efficacy or phytotoxicity) | 1 (1%-39% of herbicidal efficacy or phytotoxicity) | 4 (90%-100% of herbicidal efficacy or phytotoxicity) | 4 (90%-100% of herbicidal efficacy or phytotoxicity) | 4 (90%-100% of herbicidal efficacy or phytotoxicity) | 10 | 4 (90%-100% of herbicidal efficacy or phytotoxicity) | 4 (90%-100% of herbicidal efficacy or phytotoxicity)
11 | COCCOC(=O)N(c1ccccc1CN1CC(C)(C2CC2)OC1=O)S(=O)(=O)C(F)(F)F (racemic) [1-119] | 4 (90%-100% of herbicidal efficacy or phytotoxicity) | 1 (1%-39% of herbicidal efficacy or phytotoxicity) | 4 (90%-100% of herbicidal efficacy or phytotoxicity) | 4 (90%-100% of herbicidal efficacy or phytotoxicity) | 4 (90%-100% of herbicidal efficacy or phytotoxicity) | 30 | 4 (90%-100% of herbicidal efficacy or phytotoxicity) | 4 (90%-100% of herbicidal efficacy or phytotoxicity)
12 | CC(C)OCCOC(=O)N(c1ccccc1CN1CC(C)(C)OC1=O)S(=O)(=O)C(F)(F)F [1-78] | 4 (90%-100% of herbicidal efficacy or phytotoxicity) | 1 (1%-39% of herbicidal efficacy or phytotoxicity) | 4 (90%-100% of herbicidal efficacy or phytotoxicity) | 4 (90%-100% of herbicidal efficacy or phytotoxicity) | 4 (90%-100% of herbicidal efficacy or phytotoxicity) | 10 | 4 (90%-100% of herbicidal efficacy or phytotoxicity) | 4 (90%-100% of herbicidal efficacy or phytotoxicity)
